Reference: patent publication US20210340178A1, “NONAPEPTIDE PREVENTING INCREASED HYPERPERMEABILITY OF VASCULAR ENDOTHELIUM” (FEDERALNOYE GOSUDARSTVENNOE BUDGETNOE UCHREZHDENIE …, priority 2018, published 2021)
“Also recorded” adds a separate entry of the source. Where two headings read alike, the source gives them in different places. Non-standard residues stand in square brackets, D forms with d. Residues, ends and D or L forms follow the SMILES beside them.

Legend:
[1] = test system: EA.hy926 endothelial cell monolayer; experiment: Thrombin-mediated FITC-dextran permeability through endothelial cell monolayer; type: cell-based; settings: peptide 100 μM, 60 min preincubation; thrombin 100 nM; 70 kDa FITC-dextran
Method: FIG. 3. The thrombin-mediated FITC-dextran permeability through the EA.hy926 endothelial cell monolayer in the presence of myosin light chain kinase peptide inhibitors. Thrombin (100 nM) was added at 0 min, the cells were preincubated for 60 min with MLCK peptide inhibitors (100 μM). Data are presented as mean±SD, n=5. p<0.05 for all data points within the 20-180 min time course range as compared to the thrombin-stimulated control.
Effects of the claimed peptide (PIK7), the prototype (PIK2), and the analogue (MLC11-19) on the endothelial permeability was assayed in a model of FITC-dextran diffusion through the endothelial monolayer as described in Example 3.
Cells were grown in 24-well plates (Greiner Bio-one, Austria) equipped with special inserts to form inner (upper) chambers with a porous bottom (the pore diameter of 0.4 μm, pore density of 10^8/cm^2) in DMEM until monolayer was formed (3-4 days). Successful monolayer was checked by measuring FITC-dextran diffusion for 1 hour through inserts with cell monolayers vs inserts without cells (‘blank’ inserts). Experiments were performed in triplicates when tight monolayers were formed. On the day of experiment, the cells were deprived for 1 h in DMEM supplemented with MLCK inhibitors or without inhibitors (control). After deprivation, FITC-dextran was added to the upper compartment to a final concentration of 0.05 mg/ml. In 30 and 60 min, a 10-μ1 aliquot was withdrawn from the lower compartment and mixed with 100 μl phosphate buffered saline pH 7.3 in a 96-well plate to estimate the endothelial monolayer baseline permeability. […] During the next 3 hrs, every 30 min, aliquots were taken from the lower compartment, and intensity of FITC fluorescence was measured using a Victor 3X plate reader (Perkin Elmer, USA) to plot the dynamics of the FITC fluorescence changes.
As shown, 100 nM thrombin induces the endothelial hyperpermeability response as reflected by an increase in 70 kDa FITC-dextran diffusion through the endothelial monolayer and an incremental increase in the fluorescence in the lower compartment of the diffusion chamber. […]

[2] = test system: myosin regulatory light chain (RLC) phosphorylation in EA.hy926 endothelial cells; experiment: Thrombin-induced myosin RLC phosphorylation in endothelial cells (immunoblotting); type: cell-based; settings: peptide 100 μM, 1 hr; thrombin 100 nM, 20 min
Method: FIG. 4. Inhibition of the thrombin-induced RLC phosphorylation in EA.hy926 endothelial cells by PIK2, PIK7 ([D-Lys^12]-MLC11-19), or MLC11-19 MLCK peptide inhibitors. Inhibitors were added up to 100 μM, n=3-5. p<0.05 for PIK2, PIK7 vs control (0, 20 min). p<0.05 for PIK2 vs PIK7 (0, 20 min).
Inhibitory effects of the claimed peptide (PIK7), its prototype (PIK2), and analogue (MLC11-19) were compared in an assay of myosin regulatory light chain (RLC) phosphorylation in vitro as described in Example 4.
Antagonistic effects of MLCK peptide inhibitors on the thrombin-mediated RLC phosphorylation in EA.hy926 endothelial cells were tested as follows. The cells were grown in 35-mm dishes in DMEM at 37° C. and the 5% CO2 atmosphere until the monolayer formed. Then, the cells were serum-starved while simultaneously incubated with 100 μM MLCK inhibitors at 37° C., 5% CO2 for 1 hr (control, 0 min). Next, the cells were stimulated with 100 nM thrombin for 20 min and collected on ice, i.e. the medium was decanted, the cells were washed with cold PBS and lysed with 100 μL of Laemmli denaturing electrophoresis buffer. The sample proteins were separated by SDS-PAGE and proceeded to immunoblotting with anti-total, anti-monophosphorylated, and anti-diphosphorylated RLC. […]

[3] = Acute toxicity in mice, single injection; type: in vivo; settings: mouse, in vivo; mice, Table 3; read-out: Toxicity LD50 in mice
Method: (§1) The study was conducted in 82 BALB/c mice (both males and females, body weight 18-24 g) obtained from the animal facility of the Scientific Center for Biomedical Technologies of the Federal Medico-Biological Agency of the Russian Federation (SCBMT). The animals were certified and otherwise healthy. The animals were kept in T-3 cages (5-10 animals per cage) with artificial 12 hrs light-dark cycles and 16× per hour forced air ventilation, temperature of 20-22° C. and 50-65% humidity on wood chips sterilized by hot air. The animals had free access to drinking water and PK-120-1 mouse cubes (GOST P50258-92; Laboratorsnab LLC, Russia).
(§2) PIK2 and PIK7 peptides were dissolved in water and administered to mice as a single intraperitoneal injection. The animals were followed for 14 days after peptide injections. An increasing dosage scheme was applied where each tested dose surpassed the previous dose by 50%. The lowest dose of the active substance was determined that caused animal death.

BALB/c mice = experiment: Acute toxicity in mice, single injection; type: in vivo
Method: as §1, §2

[4] = rabbit, in vivo
Method: (§3) PIK2 dose of 5 mg/kg was calculated individually for each rabbit and administered into marginal ear vein in a final volume of 1.7-1.9 mL in sterile physiological saline. Stock concentration of the tested substance was 10 mg/mL.
(§4) During the 24-hrs testing period, the overall health status and behavior were monitored (appetite, motion activity, hair coat condition).
(§5) Before injection of test substances (baseline) and 4 hrs and 24 hrs after the injection, the following parameters were tested in whole venous blood samples (3.0-3.5 mL) collected from a marginal ear vein red blood cell (RBC) count, hematocrit, hemoglobin level, mean RBC volume, mean corpuscular hemoglobin, total leukocyte, lymphocyte, and granulocyte counts and their percentages, platelet count, and mean platelet volume. In parallel, the following biochemical parameters were measured in serum total protein, bilirubin, urea, creatinine, glucose, total cholesterol, triglycerides, and activities of alkaline phosphatase, lactate dehydrogenase, aspartate aminotransferase, and alanine aminotransferase. Blood cell count was performed using an Abacus junior vet (Austria) hematological cell counter; biochemical studies were performed using a Targa-2000 (Italy) instrument.

Chinchilla rabbits = experiment: Tolerance of a single intravenous injection in Chinchilla rabbits; settings: i.v. 10 mg/kg
Method: as §3, §4, §5

C[C@H](NC(=O)[C@H](C)NC(=O)[C@H](CCCNC(=N)N)NC(=O)[C@@H](CCCCN)NC(=O)[C@@H](N)CCCCN)C(=O)N[C@@H](CCCNC(=N)N)C(=O)N[C@@H](C)C(=O)N[C@H](C(=O)N[C@@H](CO)C(N)=O)[C@@H](C)O [PIK7, H-Lys-D-Lys-Arg-Ala-Ala-Arg-Ala-Thr-Ser-NH2] (H-K[dK]RAARATS-NH2)
effect on thrombin-induced FITC-dextran hyperpermeability [1]: completely abolished the FITC-dextran hyperpermeability; also recorded: effectively abolished FITC-dextran hyperpermeability
inhibition of thrombin-induced RLC phosphorylation [2]: inhibited myosin RLC phosphorylation in endothelial cells with efficacy higher than that of either the prototype, PIK2, or the analogue, MLC11-19; also recorded: inhibits RLC phosphorylation in endothelial cells and its efficacy is superior to both the prototype, PIK2, and the analogue, MLC11-19
LD50 [3]: > 1000 mg/kg
lowest lethal dose, fold higher than with PIK2 (BALB/c mice; BALB/c mice, single intraperitoneal injection): 47 fold
lowest dose of the active substance that caused animal death (BALB/c mice; BALB/c mice, single intraperitoneal injection, followed 14 days): 1274 mg/kg
signs after a toxic dose (BALB/c mice; mice, single intraperitoneal injection of a toxic dose): movement retardation and death within the following 24 hrs
LD50 [4]: > 10 mg/kg
other standard hematological and biochemical parameters (Chinchilla rabbits): not altered
overall health status and behavior (Chinchilla rabbits; 24-hrs testing period): no significant changes either in the overall health status or behavior
triglyceride levels (Chinchilla rabbits; 24 hrs after administration, baseline 1.63 mmol/L): 2.79 mmol/L
hematocrit (Chinchilla rabbits; 24 hrs after administration, baseline 38.81±1.49%): 35.90±0.18%
total plasma protein (Chinchilla rabbits; 24 hrs after administration, baseline 73.6±2.58 g/L): 69.2 ± 0.47 g/L
hemoglobin level (Chinchilla rabbits; 24 hrs after administration, baseline 131±5 g/L): 120 ± 7 g/L
survival (Chinchilla rabbits; group of 4): all animals survived
